Data taken from patent US12453782B2, “Antibody-oligonucleotide conjugate” (priority 2018, dated 2025).

What was measured:
[1] = system: HER14 cells (fibroblasts stably transfected with the human epidermal growth factor receptor); assay: Viability assay (MTT) with HER14 cells, dianthin-EGF, SA1641 and polymeric structure (Example 11); assay type: cell-based; conditions: 72 h
Experimental: To test the efficacy of the invention, we conducted a viability assay with HER14 cells. These cells are fibroblasts stably transfected with the human epidermal growth factor receptor and therefore target cells for the targeted toxin dianthin-EGF. HER14 cells (2,000 cells/100 μL/well) were seeded into wells of 96-well-cell culture plates and incubated for 24 h in DMEM medium supplemented with 10% fetal calf serum and 1% penicillin/streptomycin at 37° C., 5% CO2 and 98% humidity. The different test substances (see results and FIG. 21) were then added in triplicates in a volume of 25 μL and supplemented with further 25 μL of medium. After an incubation of 72 h, 30 μL 3-(4,5-dimethylthiazol-2-yl)-2,5-diphenyltetrazolium bromide (0.5 mg/mL in water) was added per well and incubated for 2 h. Thereafter, the medium was carefully removed and replaced by an aqueous solution containing 10% (v/v) isopropanol, 5% (w/v) sodium dodecyl sulfate and 400 mM HCl, and incubated for 5 min. Solubilized formazan was photometrically quantitated at […] in a microplate reader (Spectra MAX 340 PC, Molecular Devices, Sunnyvale, CA, USA). Untreated cells were normalized to 1 and all samples referred to the untreated control. Significance was determined by unpaired two-sample t-tests.

[2] = pH dependent hydrolysis of the hydrazone bond of SO1861-EMCH (MALDI-TOF-MS); assay type: physicochemical; conditions: HCl solution at pH 3, two points in time
[3] = system: HeLa cells; assay: Co-administration of PAMAM, dendron or chloroquine with dianthin-EGF and SO1861 on HeLa cells (inhibition of endosomal escape, cell viability); assay type: cell-based, human; conditions: 500 nM PAMAM, PAMAM derivatives or chloroquine, 667 nM dendron, various SO1861 concentrations
Source text: As control for the inhibition of endosomal acidification chloroquine was used.

[4] = newly diagnosed glioblastoma (ABT-414); platinum-resistant ovarian cancer (IMGN853); cited from earlier work
[5] = system: SK-BR-3, JIMT-1, MDA-MB-468, A431, CaSki, HeLa, A2058; assay: Control treatments, relative cell viability on various cancer cell lines (Example 4, FIG. 8); assay type: cell-based, human; conditions: wide range of toxin concentrations, up to 100.000 pM
Experimental: After treatment the cells were incubated for 72 hr at 37° C. before the cell viability was determined by a MTS-assay, performed according to the manufacturer's instruction (CellTiter 96® AQueous One Solution Cell Proliferation Assay, Promega). Briefly, the MTS solution was diluted 20× in DMEM without phenol red (PAN-Biotech GmbH) supplemented with 10% FBS (PAN-Biotech GmbH). The cells were washed once with 200 μL PBS per well, after which 100 μL diluted MTS solution was added per well. The plate was incubated for approximately 20-30 minutes at 37° C. Subsequently, the optical density at 492 nm was measured on a Thermo Scientific Multiskan FC plate reader (Thermo Scientific). For quantification the background signal of ‘medium only’ wells was subtracted from all other wells, before the ratio of untreated/treated cells was calculated, by dividing the background corrected signal of untreated wells over the background corrected signal of the treated wells.

Compound: C[C@@H]1O[C@@H](O[C@H]2[C@H](OC(=O)[C@]34CCC(C)(C)C[C@H]3C3=CC[C@@H]5[C@@]6(C)CC[C@H](O[C@H]7O[C@H](C(=O)O)[C@@H](O)[C@H](O[C@@H]8OC[C@@H](O)[C@H](O)[C@H]8O)[C@H]7O[C@@H]7O[C@H](CO)[C@H](O)[C@H](O)[C@H]7O)[C@@](C)(C=O)[C@@H]6CC[C@@]5(C)[C@]3(C)CC4)O[C@H](C)[C@H](O[C@@H]3O[C@H](C)[C@@H](O)[C@H](O)[C@H]3O)[C@@H]2O)[C@H](O)[C@H](O)[C@H]1O[C@@H]1OC[C@@H](O)[C@H](O[C@@H]2OC[C@@H](O)[C@H](O)[C@H]2O)[C@H]1O [SA1641]
- effect on cells of 0.1 nM dianthin-EGF in the presence of SA1641 [1]: death of all cells

Compound: CC(=O)OC1C(C)OC(OC2C(C)OC(OC(=O)[C@]34CCC(C)(C)CC3C3=CCC5[C@@]6(C)CC[C@H](OC7OC(C(=O)O)C(O)C(OC8OCC(O)C(O)C8O)C7OC7OC(CO)C(O)C(O)C7O)[C@@](C)(/C=N/NC(=O)CCCCCN7C(=O)C=CC7=O)C6CC[C@@]5(C)[C@]3(C)C[C@H]4O)C(OC3OC(C)C(OC4OCC(O)C(OC5OC(CO)C(O)C(O)C5O)C4O)C(O)C3O)C2O)C(O)C1OC1OCC(O)C(O)C1O (stereo partly drawn) [SO1861-EMCH]
- hydrolysis of the hydrazone bond [2]: responsive towards hydrolysis and gets cleaved

Compound: CCN(CC)CCCC(C)Nc1ccnc2cc(Cl)ccc12 (stereo not drawn) [chloroquine]
- effect on SO1861-mediated endosomal escape of the targeted toxin (dianthin-EGF) and cell killing [3]: inhibit the SO1861-mediated endosomal escape of the targeted toxin and subsequent cell killing

Compound: depatuxizumab mafodotin: EGFR targeted ADC, AbbVie
- survival benefit in phase 3 trials [4]: no survival benefit

Compound: mirvetuximab soravtansine: folate receptor alpha targeted ADC, ImmunoGen
- survival benefit in phase 3 trials [4]: no survival benefit

Compound: saporin
- influence on cell viability [5]: do not or hardly have any influence on cell viability
